From patent US4004008A, “O-Tertiary amino-alkyl-N-benzoyl tyrosil amides” (priority 1974, dated 1977)

How the values were obtained:
[1] = test system: ileum of a cavy (BaCl2 spasm); assay: Antispastic activity in vitro, Magnus method, cavy ileum stimulated with BaCl2; assay type: cell-based; conditions: ratio to papaverine = 1; Table 1; 37°
Experimental: C. The method in vitro is that of Magnus, with the ileum of the cavy, and is in common use for all evaluations. It consists of extracting the ileum from the cavy and placing it in a receptacle which contains nutritive liquid, suitably oxygenated, and registering the movements of the organ which remains alive for several hours if maintained at a temperature of 37°. According to the traditional method followed by us, BaCl2 is put into the bath as a spasmisant: the reaction is a violent contraction of the organ. This contraction can be prevented by adding beforehand pharmaceuticals which inhibit spasms, and in this case our compounds.
The values recorded are expressed as relation between papaverine and the ED50 of our compounds. (As is known, the ED50 is the dose which results in a 50% reduction in spastic contraction).
E. I.T.2 is the therapeutic index under the profile of the antispastic activity in vitro and is given by the product between the in vitro antispastic activity index (column 4) and the corresponding DL50 (column 2).

[2] = Acute toxicity (DL50) i.v. in rat; assay type: in vivo; conditions: in vivo, iv, dose causing death in 50% of the animals
Experimental: In this table (n. 1) there are recorded the compounds described in the examples with their relative serial numbers, the acute toxicity, the antispastic activity observed in two experimental tests, one "in vivo" and one "in vitro". There are moreover recorded two therapeutic indices which take account of the toxicity of these compounds in relation to their in vivo and in vitro activity. More precisely:
A. DL50 which, as is known, is the quantity of the substance expressed in mg/kg of animal weight, capable of causing death in 50% of the animals treated.

[3] = test system: intestinal transit of the charcoal; assay: Vegetable carbon (charcoal) intestinal transit test in vivo; design: species or system rat; conditions: i.v., rat, charcoal test, 2 hours; for ED50: Rattus norvegicus, iv, 2 h, read-out: Antisp. activity in transit test: ED50
Experimental: B. The vegetable carbon method in vivo (charcoal method) which consists of administering by oral means to rats, which have fasted for 24 hours, 0.3ml/per rate of a mixture consisting of: 10g of charcoal and 5 g of gum arabic suspended in a volume of 100 cc of H2 O as well as at the same time the substance being studied, accordingly as desired, generally i.v., s.c., oral. After two hours the animals are killed and those are taken to be negative in which the charcoal has reached the first portion of the colon and the others positive, in the sense that the substance administered has slowed down the intestinal transit of the charcoal.
In effect the animals treated with a physiological solution (checks) are all negative after two hours.
D. I.T.1 is the therapeutic index under the profile of the antispastic activity in vivo, and it is obtained by recording the DL50 (column 2) with the ED50 of the charcoal test (column 3).

Row | Compound | Antisp. activity in vitro on the ileum of a cavy by Stim. BaCl2: ED50 pap./ED50 CR [1] | LD50 [2] | ED50 [3] | Antisp. activity in transit test: ED50 [3]
1 | CCCN(CCC)C(=O)C(Cc1ccc(OCCN(C)C)cc1)NC(=O)c1ccccc1 (racemic) [CR 592, O-(2dimethylamino-ethyl)-N-benzol-DL-Tyrosil-di-n-propilamide] | 0.25 | 58.1 mg/kg | 47.5 mg/kg | 
2 | CCNC(=O)C(Cc1ccc(OCCN(C)C)cc1)NC(=O)c1ccccc1 (racemic) [CR 608, O-(2-dimethylamino-ethyl)-N-benzoyl-DL-tyrosil-ethylamide] |  | 162 mg/kg | 104 mg/kg | 
3 | CCCN(CCC)C(=O)C(Cc1ccc(OCCCN2CCN(CCO)CC2)cc1)NC(=O)c1ccccc1 (racemic) [CR 609, O-[3-(N"-hydroxyethyl-piperazine)-N'-propyl]-N-benzoyl-DL-tyrosil-di-n-propylamide] | 0.68 | 139 mg/kg | 50.5 mg/kg | 
4 | CN(C)CCOc1ccc(CC(NC(=O)c2ccccc2)C(=O)N2CCOCC2)cc1 (racemic) [CR 611, O-(2-dimetylamino-ethyl)-N-benzoyl-DL-tyrosil-morpholilamide] |  | 108 mg/kg | 59.8 mg/kg | 
5 | CCN(CC)CCOc1ccc(CC(NC(=O)c2ccccc2)C(=O)N2CCCC2)cc1 (racemic) [CR 614, O-(2-diethylamino-ethyl)-N-benzoyl-DL-tyrosil-pyrrolidilamide] |  | 58.7 mg/kg | 53.2 mg/kg | 
6 | CN(C)CCOc1ccc(CC(NC(=O)c2ccccc2)C(=O)NCc2ccccc2)cc1 (racemic) [CR 616, O-(2-dimethylamino-ethyl)-N-benzoyl-DL-tyrosil-benzylamide] | 0.82 | 73.6 mg/kg |  | inactive
7 | CCCN(CCC)C(=O)C(Cc1ccc(OCCCN2CCN(Cc3ccccc3)CC2)cc1)NC(=O)c1ccccc1 (racemic) [CR 619, O-[3-(N"-benzylpiperazine)-N'-propyl]-N-benzoyl-DL-tyrosil-di-n-propylamide] |  | 110 mg/kg | 67.8 mg/kg | 
8 | CCCN(CCC)C(=O)C(Cc1ccc(OCCN(C)C)cc1)NC(=O)c1ccc([N+](=O)[O-])cc1 (racemic) [CR 620, O-(2-dimethylamino-ethyl)-N-(p-nitro-benzoyl)DL-tyrosil-di-n-propylamide] | 0.36 | 117 mg/kg |  | inactive
9 | CCCN(CCC)C(=O)C(Cc1ccc(OCCN(C(C)C)C(C)C)cc1)NC(=O)c1ccccc1 (racemic) [CR 624, O-(2-di-isopropylamino-ethyl)-N-benzoyl-DL-tyrosil-di-n-propylamide] | 1.12 | 24.4 mg/kg |  | inactive
10 | CCCN(CCC)C(=O)C(Cc1ccc(OCCN2CCCC2)cc1)NC(=O)c1ccccc1 (racemic) [CR 625, O-(2-pyrrolidil-N'-ethyl)-N-benzoyl-DL-tyrosil-di-n-propylamide] | 0.52 | 32.6 mg/kg | 21.1 mg/kg | 
11 | CCCN(CCC)C(=O)C(Cc1ccc(OCCN2CCCCC2)cc1)NC(=O)c1ccccc1 (racemic) [CR 630, O-(2-piperidil -N'-ethyl)-N-benzoyl-DL-tyrosil-di-n-propylamide] |  | 36.1 mg/kg | 40.1 mg/kg | 
12 | CCCN(CCC)C(=O)C(Cc1ccc(OCCN(CC)CC)cc1)NC(=O)c1ccc(Br)cc1 (racemic) [CR 631, O-(2-diethylamino-ethyl)-N-(p-bromobenzoyl)-DL-tyrosil-din-propylamide] | 1.22 | 60.2 mg/kg | 40.4 mg/kg | 
13 | CCCN(CCC)C(=O)C(Cc1ccc(OCCN(CC)CC)cc1)NC(=O)c1ccc(C)c(C)c1 (racemic) [CR 632, O-(2-diethylamino-ethyl)-N-(3,4-di-methyl-benzoyl)-DL-tyrosil-di-n-propylamide] | 0.40 | 38.1 mg/kg | 26 mg/kg | 
14 | CCCN(CCC)C(=O)C(Cc1ccc(OCCN(CC)CC)cc1)NC(=O)c1ccc(C(F)(F)F)cc1 (racemic) [CR 635, O-(2-diethylamino-ethyl)-N-[p-(trifluoro-methyl)-benzoyl]-DL-tyrosil-di-n-p ropylamide] | 0.95 | 38.7 mg/kg | 25.6 mg/kg | 
15 | CCCN(CCC)C(=O)C(Cc1ccc(OCCN(CC)CC)cc1)NC(=O)c1ccc(OC)cc1 (racemic) [CR 644, O-(2-diethylamino-ethyl)-N-(p-metoxy-benzoyl)-DL-tyrosil-di-n-propylamide] | 0.45 | 56.4 mg/kg | 20.2 mg/kg | 
16 | CCCCNC(=O)C(Cc1ccc(OCCN2CCCC2)cc1)NC(=O)c1ccccc1 (racemic) [CR 648, O-(2-pyrrolidil-N'-ethyl)-N-benzoyl-DL-tyrosil-n-butylamide] | 0.16 | 35.6 mg/kg | 10.7 mg/kg | 
17 | CCCN(CCC)C(=O)C(Cc1ccc(OC(C)C(C)CN(CC)CC)cc1)NC(=O)c1ccccc1 (racemic) [CR 700, O-(3-diethylamino-1,2-dimethyl-propyl)-N-benzoyl-DL-tyrosil-di-n-propylamide] |  | 19.3 mg/kg | 20.4 mg/kg | 
18 | CCCCNC(=O)C(Cc1ccc(OCCCN2CCN(C)CC2)cc1)NC(=O)c1ccccc1 (racemic) [CR 702, O-[3-(N"-methyl-piperazine)-N'-propyl]-N-benzoyl-DL-tyrosil-n-butylamide] | 0.11 | 81.4 mg/kg | 62.5 mg/kg | 
19 | CCCCNC(=O)C(Cc1ccc(OCCCN2CCN(C)CC2)cc1)NC(=O)c1ccc(Cl)cc1 (racemic) [CR 705, O-[3-(N"-methyl-piperazine)-N'-propyl]-N-(p-chloro-benzoyl)-DL-tyrosil-n-butylamide] | 1.57 | 80 mg/kg | 31 mg/kg | 
20 | CCNC(=O)C(Cc1ccc(OCCN(C(C)C)C(C)C)cc1)NC(=O)c1ccccc1 (racemic) [CR 711, O-(2-diisopropylamino-ethyl)-N-benzoyl-DL-tyrosil-ethylamide] | 0.42 | 82 mg/kg |  | inactive
21 | CCNC(=O)C(Cc1ccc(OCCCN2CCN(C)CC2)cc1)NC(=O)c1ccc(Cl)cc1 (racemic) [CR 714, O-[3-(N"-methyl-piperazine)-N'-propyl]-N-(p-chloro-benzoyl)-DL-tyrosil-ethylamide] | 0.42 | 111 mg/kg |  | inactive
22 | CCCN(CCC)C(=O)C(Cc1ccc(OCCN(C(C)C)C(C)C)cc1)NC(=O)c1ccc(Cl)cc1 (racemic) [CR 727, O-(2'-di-isopropylamino-ethyl)-N-(p-chloro-benzoyl)-DL-tyrosil-di-n-propylamide] | 1.52 | 26.3 mg/kg | 24.9 mg/kg | 
23 | CCCCNC(=O)C(Cc1ccc(OCCN(CC)CC)cc1)NC(=O)c1ccc(Cl)cc1 (racemic) [CR 729, O-(2-diethylamino-ethyl)-N-(p-chloro-benzoyl)-DL-tyrosil-n-butylamide] | 2.45 | 38.6 mg/kg | 23 mg/kg | 
24 | CCCCNC(=O)C(Cc1ccc(OCCN2CCN(C)CC2)cc1)NC(=O)c1ccc(Cl)cc1 (racemic) [CR 730, O-[2-(N"-methyl-piperazine)-N'-ethyl]-N-(p-chloro-benzoyl)-DL-tyrosil-n-butylamide] | 0.99 | 50 mg/kg | 30.2 mg/kg | 
25 | CCCN(CCC)C(=O)C(Cc1ccc(OCCN2CCN(C)CC2)cc1)NC(=O)c1ccc(Cl)cc1 (racemic) [CR 733, O-[2'-(N"-methyl-piperazine)-N'-ethyl]-N-(p-chloro-benzoyl)-DL-tyrosil-di-n-propylamide] | 1.31 | 43.5 mg/kg | 16.7 mg/kg | 
26 | CCCN(CCC)C(=O)C(Cc1ccc(OCCCCN(CC)CC)cc1)NC(=O)c1ccccc1 (racemic) [CR 829, O-(4-diethylamino-butyl)-N-benzoyl-DL-tyrosil-di-n-propylamide] |  | 20.1 mg/kg | 15.2 mg/kg | 
